Reference: patent EP0409382A1, “Glutamic acid derivatives” (THE WELLCOME FOUNDATION LIMITED, priority 1989, dated 1991)

System: MCF-7 breast adenocarcinoma
Experiment: Cell culture cytotoxicity assay (MTT dye reduction), inhibition of cell growth
Type: cell-based, Human
Details: for IC50: MCF7, Anti-tumour Activity Human Breast Adenocarcinoma Cells, MCF-7, 72 hours incubation, medium with 10 nM calcium leucovorin as folate source, read-out: IC₅₀; for inhibiting the growth of MCF-7 cells: 72 hours, MTT dye reduction, result in words
Method: Cells and Medium: MCF-7 breast adenocarcinoma, obtained from the American Type Culture Collection (ATCC) are grown in RPMI 1640 medium supplemented with 10 nM calcium leucovorin instead of folic acid as the folate source; 10% dialyzed fetal calf serum, penicillin, streptomycin and sodium pyruvate (110 µg/ml).
Cytotoxicity Assay: Cells are seeded into 96 well plates using a Perkin Elmer Pro/pette. MCF-7 cells are seeded at 15,000 cells per well in 150 µl of medium and each concentration was assayed in triplicate. Cultures were incubated for 72 hours in a 37^o humidified incubator at5% CO₂. Inhibition of cell growth was measured using the MTT dye reduction assay.
MTT Dye Reduction Assay: Cell dilutions for a standard curve were prepared from a 72 hour log-phase culture. Serial dilutions were seeded in triplicate in 96 well plates and incubated at 37 for 1 hour. MTT (3-(4,5-dimethylthiazol-2-yl)-2,5-diphenyltetrazolium bromide) was dissolved in phosphate buffered saline at 5 mg/ml and sonicated for 30 seconds. Using the Perkin Elmer Pro/pipette, […] of medium was removed and 100 µl of MTT added to the wells of the standard curve and test plates. Suspension cultures were spun for 5 minutes at 1000 rpm before removing medium from the wells. Plates were incubated for 1 hour at 37^o on a platform shaker. Following this incubation, 100 µl of medium was removed from the wells and 100 µl of dimethylsulphoxide added to each well. The plates were sonicated for approximately 10 seconds to solubilize the precipitated formazan dye. The absorbance of each well was measured using a Titertek Multiskan MC microtiter plate reader at 570 nm with a reference wavelength of 750 nm.

Row | Structure (SMILES) | IC50 | inhibiting the growth of MCF-7 cells
1 | Nc1nc(N)c(CCCSc2ccc(C(=O)N[C@@H](CCC(=O)O)C(=O)O)cc2)c(=O)[nH]1 [Example 1F, N-[4-[[3-(2,4-Diamino-1,6-dihydro-6-oxo-5-pyrimidinyl)propyl]thio]benzoyl]-L-glutamic acid] | 0.023 µM | active
2 | Nc1nc(N)c(CCCOc2ccc(C(=O)N[C@@H](CCC(=O)O)C(=O)O)cc2)c(=O)[nH]1 [Example 2E, N-[4-[3-(2,4-Diamino-1,6-dihydro-6-oxo-5-pyrimidinyl)propoxy]benzoyl]-L-glutamic acid] | 0.085 µM | active
